Results published in patent US20260327214A1, “1,3,4-OXADIAZOLE DERIVATIVE COMPOUNDS AS HISTONE DEACETYLASE 6 INHIBITOR, AND USES THEREOF” (CHONG KUN DANG PHARMACEUTICAL CORP., priority 2022, published 2026).

Legend:
[1] = target: T1, human recombinant HDAC1 (Homo sapiens, UniProt Q13547); assay: HDAC1 enzyme activity inhibition test (HDAC Fluorometric Drug Discovery Kit); assay type: biochemical; settings: 30° C., 60 minutes, 10 μM substrate
T1 construct: purchased Enzo Life Science BML-SE456
Procedure, shortened: (§1)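 Recombinant human HDAC1 or HDAC6 (0.3 μg) reacted with 10 μM Fluor de Lys SIRT1 substrate and 5-fold diluted compound for 60 min at 30 °C. Developer II added 30 min; fluorescence read at Ex 360/Em 460 and IC50 calculated.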

[2] = target: T2, human recombinant HDAC6 (Homo sapiens, UniProt Q9UBN7); assay: HDAC6 enzyme activity inhibition test (HDAC Fluorometric Drug Discovery Kit); assay type: biochemical; settings: for HDAC6 selectivity (fold): HDAC6 over HDAC1; for IC50: human recombinant HDAC6, same protocol as HDAC1
T2 construct: purchased Calbiochem 382180
T2 sequence (Q9UBN7 1-1215): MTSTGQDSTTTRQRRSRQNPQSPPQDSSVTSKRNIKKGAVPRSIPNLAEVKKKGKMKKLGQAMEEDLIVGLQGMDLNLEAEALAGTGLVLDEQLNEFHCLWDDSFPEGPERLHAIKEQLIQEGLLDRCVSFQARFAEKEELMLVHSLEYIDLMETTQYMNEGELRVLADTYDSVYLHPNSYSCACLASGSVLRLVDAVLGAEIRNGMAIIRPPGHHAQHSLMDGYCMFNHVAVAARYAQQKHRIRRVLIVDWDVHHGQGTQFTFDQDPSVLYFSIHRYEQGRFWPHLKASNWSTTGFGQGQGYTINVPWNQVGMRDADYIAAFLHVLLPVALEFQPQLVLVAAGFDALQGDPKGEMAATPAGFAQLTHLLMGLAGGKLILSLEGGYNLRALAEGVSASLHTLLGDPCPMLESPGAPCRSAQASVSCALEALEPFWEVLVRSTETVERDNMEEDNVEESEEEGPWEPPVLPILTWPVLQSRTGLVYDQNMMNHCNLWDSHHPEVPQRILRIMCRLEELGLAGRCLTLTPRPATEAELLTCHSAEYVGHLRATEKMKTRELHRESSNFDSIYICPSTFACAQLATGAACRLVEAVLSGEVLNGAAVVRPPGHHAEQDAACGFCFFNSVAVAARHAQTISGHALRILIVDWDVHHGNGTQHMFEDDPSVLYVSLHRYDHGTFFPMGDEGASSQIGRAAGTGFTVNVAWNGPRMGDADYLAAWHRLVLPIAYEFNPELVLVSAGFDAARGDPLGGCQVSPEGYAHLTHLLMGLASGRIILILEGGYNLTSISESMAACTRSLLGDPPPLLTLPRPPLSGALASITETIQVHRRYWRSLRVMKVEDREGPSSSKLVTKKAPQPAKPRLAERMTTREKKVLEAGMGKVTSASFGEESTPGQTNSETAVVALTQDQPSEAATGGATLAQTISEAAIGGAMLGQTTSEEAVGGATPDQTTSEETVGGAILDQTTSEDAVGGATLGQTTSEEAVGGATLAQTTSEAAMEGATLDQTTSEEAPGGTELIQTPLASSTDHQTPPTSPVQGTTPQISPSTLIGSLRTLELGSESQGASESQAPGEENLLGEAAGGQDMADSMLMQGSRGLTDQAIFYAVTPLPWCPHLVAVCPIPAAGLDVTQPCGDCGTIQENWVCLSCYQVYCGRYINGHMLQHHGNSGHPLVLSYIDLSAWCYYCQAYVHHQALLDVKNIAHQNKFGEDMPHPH
Procedure, shortened: as §1

T1 sequence (Q13547 whole entry): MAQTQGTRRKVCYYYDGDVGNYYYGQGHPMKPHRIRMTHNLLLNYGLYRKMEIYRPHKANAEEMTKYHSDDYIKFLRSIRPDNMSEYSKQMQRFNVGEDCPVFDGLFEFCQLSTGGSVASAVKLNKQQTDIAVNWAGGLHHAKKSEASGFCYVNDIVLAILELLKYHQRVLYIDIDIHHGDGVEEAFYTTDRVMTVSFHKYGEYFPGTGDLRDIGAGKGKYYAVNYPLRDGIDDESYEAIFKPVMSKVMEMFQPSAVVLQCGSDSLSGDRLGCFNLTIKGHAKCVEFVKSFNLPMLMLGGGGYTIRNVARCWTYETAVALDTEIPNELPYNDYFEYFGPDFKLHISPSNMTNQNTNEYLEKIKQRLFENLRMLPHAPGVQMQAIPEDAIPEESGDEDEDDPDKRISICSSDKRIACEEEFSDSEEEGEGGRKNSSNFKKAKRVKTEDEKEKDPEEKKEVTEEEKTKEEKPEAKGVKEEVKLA

Which IC50 [1] does the source give for CN(C)Cc1ccc(-c2nn(Cc3ncc(-c4nnc(C(F)F)o4)cc3F)c(=S)o2)s1 [Compound 128, 3-[[5-[5-(difluoromethyl)-1,3,4-oxadiazol-2-yl]-3-fluoro-2-pyridyl]methyl]-5-[5-[(dimethylamino)methyl]-2-thienyl]-1,3,4-oxadiazol-2-thione] here?
The IC50 was greater than 50000 nM.

And the “HDAC6 selectivity (fold)” value [2]?
The value was 583 fold.

What about the IC50 [2] of the same compound?
Its IC50 is 85.7 nM.

Which IC50 [1] does the source give for O=c1oc(-c2ccccc2)nn1Cc1ccc(-c2nnc(C(F)F)o2)cn1 [Compound 1, 3-((5-(5-(difluoromethyl)-1,3,4-oxadiazol-2-yl)pyridin-2-yl)methyl)-5-phenyl-1,3,4-oxadiazol-2 (3H)-one] here?
The IC50 was greater than 50000 nM.

What about the “HDAC6 selectivity (fold)” value [2] of the same compound?
Its value is 416 fold.

And the IC50 [2]?
Its IC50 is 120 nM.

Which results are given for O=c1oc(-c2cccc(N3CCNCC3)c2)nn1Cc1ccc(-c2nnc(C(F)F)o2)cn1 [Compound 36, 3-[[5-[5-(difluoromethyl)-1,3,4-oxadiazol-2-yl]-2-pyridyl]methyl]-5-(3-piperazin-1-ylphenyl)-1,3,4-oxadiazol-2-one]?
IC50 [1]: > 50000 nM; HDAC6 selectivity (fold) [2]: 640 fold; IC50 [2]: 78.1 nM

Which IC50 [1] does the source give for O=c1oc(-c2cccc(N3CCN(C4COC4)CC3)c2)nn1Cc1ccc(-c2nnc(C(F)F)o2)cn1 [Compound 40, 3-[[5-[5-(difluoromethyl)-1,3,4-oxadiazol-2-yl]-2-pyridyl]methyl]-5-[3-[4-(oxetane-3-yl)piperazin-1-yl]phenyl]-1,3,4-oxadiazol-2-one] here?
Its IC50 is greater than 50000 nM.

What about the “HDAC6 selectivity (fold)” value [2] of the same compound?
The value was 652 fold.

What about the IC50 [2] of the same compound?
Its IC50 is 76.7 nM.

How did the IC50 [1] turn out when FC(F)c1nnc(-c2ccc(Cn3nc(-c4ccnc(N5CCN(C6CCCC6)CC5)c4)oc3=S)nc2)o1 [Compound 106, 5-[2-(4-cyclopentylpiperazin-1-yl)-4-pyridyl]-3-[[5-[5-(difluoromethyl)-1,3,4-oxadiazol-2-yl]-2-pyridyl]methyl]-1,3,4-oxadiazol-2-thione] was run?
The IC50 was greater than 50000 nM.

And the “HDAC6 selectivity (fold)” value [2]?
Its value is 639 fold.

And the IC50 [2]?
The IC50 was 78.2 nM.

How did the IC50 [1] turn out when O=c1oc(-c2cccs2)nn1Cc1ccc(-c2nnc(C(F)F)o2)cn1 [Compound 5, 3-[[5-[5-(difluoromethyl)-1,3,4-oxadiazol-2-yl]-2-pyridyl]methyl]-5-(2-thienyl)-1,3,4-oxadiazol-2-one] was run?
Its IC50 is greater than 50000 nM.

What about the “HDAC6 selectivity (fold)” value [2] of the same compound?
The value was 589 fold.

What about the IC50 [2] of the same compound?
The IC50 was 84.9 nM.

For FC(F)c1nnc(-c2ccc(Cn3nc(-c4ccc(CN5CCCC5)cc4)oc3=S)nc2)o1 [Compound 93, 3-[[5-[5-(difluoromethyl)-1,3,4-oxadiazol-2-yl]-2-pyridyl]methyl]-5-[4-(pyrrolidin-1-ylmethyl)phenyl]-1,3,4-oxadiazol-2-thione], which IC50 [1] is on record?
Its IC50 is greater than 50000 nM.

What about the “HDAC6 selectivity (fold)” value [2] of the same compound?
The value was 2890 fold.

What about the IC50 [2] of the same compound?
Its IC50 is 17.3 nM.

How did the IC50 [1] turn out when CC(C)N1CCC(c2ccc(-c3nn(Cc4ccc(-c5nnc(C(F)F)o5)cn4)c(=O)o3)cc2)CC1 [Compound 30, 3-[[5-[5-(difluoromethyl)-1,3,4-oxadiazol-2-yl]-2-pyridyl]methyl]-5-[4-(1-isopropyl-4-piperidyl)phenyl]-1,3,4-oxadiazol-2-one] was run?
The IC50 was greater than 50000 nM.

What about the “HDAC6 selectivity (fold)” value [2] of the same compound?
Its value is 518 fold.

What about the IC50 [2] of the same compound?
Its IC50 is 96.5 nM.

O=C1OCC(c2ccccn2)=NN1Cc1ccc(-c2nnc(C(F)F)o2)cn1 [Compound 72, 3-[[5-[5-(difluoromethyl)-1,3,4-oxadiazol-2-yl]-2-pyridyl]methyl]-5-(2-pyridyl)-6H-1,3,4-oxadiazin-2-one] was tested. Which IC50 [1] did it give?
The IC50 was greater than 50000 nM.

And the “HDAC6 selectivity (fold)” value [2]?
The value was 420 fold.

What about the IC50 [2] of the same compound?
Its IC50 is 119 nM.

Which IC50 [1] does the source give for FC(F)c1nnc(-c2ccc(Cn3nc(-c4ccc(CN5CC[C@@H](F)C5)s4)oc3=S)nc2)o1 [Compound 124, 3-[[5-[5-(difluoromethyl)-1,3,4-oxadiazol-2-yl]-2-pyridyl]methyl]-5-[5-[[(3R)-3-fluoropyrrolidin-1-yl]methyl]-2-thienyl]-1,3,4-oxadiazol-2-thione] here?
The IC50 was greater than 50000 nM.

And the “HDAC6 selectivity (fold)” value [2]?
The value was 491 fold.

And the IC50 [2]?
Its IC50 is 102 nM.

With CN1CCN(c2nccc(-c3nn(Cc4ccc(-c5nnc(C(F)F)o5)cn4)c(=S)o3)n2)CC1 [Compound 126, 3-[[5-[5-(difluoromethyl)-1,3,4-oxadiazol-2-yl]-2-pyridyl]methyl]-5-[2-(4-methylpiperazin-1-yl)pyrimidin-4-yl]-1,3,4-oxadiazol-2-thione] as the compound, how does the IC50 [1] read?
Its IC50 is greater than 50000 nM.

What about the “HDAC6 selectivity (fold)” value [2] of the same compound?
The value was 977 fold.

And the IC50 [2]?
The IC50 was 51.2 nM.

For CC1CCN(Cc2ccc(-c3nn(Cc4ccc(-c5nnc(C(F)F)o5)cn4)c(=S)o3)cc2)CC1 [Compound 96, 3-[[5-[5-(difluoromethyl)-1,3,4-oxadiazol-2-yl]-2-pyridyl]methyl]-5-[4-[(4-methyl-1-piperidyl)methyl]phenyl]-1,3,4-oxadiazol-2-thione], which IC50 [1] is on record?
The IC50 was greater than 50000 nM.

And the “HDAC6 selectivity (fold)” value [2]?
Its value is 1208 fold.

And the IC50 [2]?
The IC50 was 41.4 nM.

How did the IC50 [1] turn out when FC(F)c1nnc(-c2ccc(Cn3nc(-c4ccc(CN5CC[C@H](F)C5)s4)oc3=S)nc2)o1 [Compound 125, 3-[[5-[5-(difluoromethyl)-1,3,4-oxadiazol-2-yl]-2-pyridyl]methyl]-5-[5-[[(3S)-3-fluoropyrrolidin-1-yl]methyl]-2-thienyl]-1,3,4-oxadiazol-2-thione] was run?
The IC50 was greater than 50000 nM.

What about the “HDAC6 selectivity (fold)” value [2] of the same compound?
Its value is 563 fold.

And the IC50 [2]?
The IC50 was 88.8 nM.

How did the IC50 [1] turn out when CC1CCN(Cc2cccc(-c3nn(Cc4ccc(-c5nnc(C(F)F)o5)cn4)c(=S)o3)c2)CC1 [Compound 88, 3-[[5-[5-(difluoromethyl)-1,3,4-oxadiazol-2-yl]-2-pyridyl]methyl]-5-[3-[(4-methyl-1-piperidyl)methyl]phenyl]-1,3,4-oxadiazol-2-thione] was run?
The IC50 was greater than 50000 nM.

And the “HDAC6 selectivity (fold)” value [2]?
Its value is 449 fold.

And the IC50 [2]?
The IC50 was 111 nM.

What does the source list for O=c1sc(-c2cccc(CN3CCN(C4CS(=O)(=O)C4)CC3)c2)nn1Cc1ccc(-c2nnc(C(F)F)o2)cn1 [Compound 65, 3-[[5-[5-(difluoromethyl)-1,3,4-oxadiazol-2-yl]-2-pyridyl]methyl]-5-[3-[[4-(1,1-dioxothietan-3-yl)piperazin-1-yl]methyl]phenyl]-1,3,4-thiadiazol-2-one]?
IC50 [1]: > 50000 nM; HDAC6 selectivity (fold) [2]: 537 fold; IC50 [2]: 93.1 nM

Which IC50 [1] does the source give for CC(C)N1CCN(c2cccc(-c3nn(Cc4ccc(-c5nnc(C(F)F)o5)cn4)c(=O)o3)c2)CC1 [Compound 38, 3-[[5-[5-(difluoromethyl)-1,3,4-oxadiazol-2-yl]-2-pyridyl]methyl]-5-[3-(4-isopropylpiperazin-1-yl)phenyl]-1,3,4-oxadiazol-2-one] here?
Its IC50 is greater than 50000 nM.

And the “HDAC6 selectivity (fold)” value [2]?
The value was 988 fold.

And the IC50 [2]?
Its IC50 is 50.6 nM.

For Fc1cc(-c2nnc(C(F)F)o2)cnc1Cn1nc(-c2ccccn2)oc1=S [Compound 47, 3-[[5-[5-(difluoromethyl)-1,3,4-oxadiazol-2-yl]-3-fluoro-2-pyridyl]methyl]-5-(2-pyridyl)-1,3,4-oxadiazol-2-thione], which IC50 [1] is on record?
Its IC50 is greater than 50000 nM.

And the “HDAC6 selectivity (fold)” value [2]?
Its value is 1548 fold.

What about the IC50 [2] of the same compound?
Its IC50 is 32.3 nM.

Which results are given for CN1CCc2ccc(-c3nn(Cc4ccc(-c5nnc(C(F)F)o5)cn4)c(=O)o3)cc2C1 [Compound 12, 3-[[5-[5-(difluoromethyl)-1,3,4-oxadiazol-2-yl]-2-pyridyl]methyl]-5-(2-methyl-3,4-dihydro-1H-isoquinolin-7-yl)-1,3,4-oxadiazol-2-one]?
IC50 [1]: > 50000 nM; HDAC6 selectivity (fold) [2]: 607 fold; IC50 [2]: 82.4 nM

With O=c1oc(-c2cccc(C3CCN(C4COC4)CC3)c2)nn1Cc1ccc(-c2nnc(C(F)F)o2)cn1 [Compound 9, 3-[[5-[5-(difluoromethyl)-1,3,4-oxadiazol-2-yl]-2-pyridyl]methyl]-5-[3-[1-(oxetane-3-yl)-4-piperidyl]phenyl]-1,3,4-oxadiazol-2-one] as the compound, how does the IC50 [1] read?
Its IC50 is greater than 50000 nM.

And the “HDAC6 selectivity (fold)” value [2]?
The value was 585 fold.

And the IC50 [2]?
The IC50 was 85.5 nM.

With O=C1OCC(c2ccccc2)=NN1Cc1ncc(-c2nnc(C(F)F)o2)cc1F [Compound 71, 3-[[5-[5-(difluoromethyl)-1,3,4-oxadiazol-2-yl]-3-fluoro-2-pyridyl]methyl]-5-phenyl-6H-1,3,4-oxadiazin-2-one] as the compound, how does the IC50 [1] read?
The IC50 was greater than 50000 nM.

And the “HDAC6 selectivity (fold)” value [2]?
Its value is 510 fold.

What about the IC50 [2] of the same compound?
Its IC50 is 98 nM.
